Here are results for eleven compounds from ChEMBL document CHEMBL4020737, “Synthesis and cytotoxic activity of new artemisinin hybrid molecules against human leukemia cells” (Bioorg Med Chem, 2017).

Assay [1] relates to ADR5000 cell line. Briefly: Cytotoxicity against human CEM/ADR5000 cells assessed as reduction in cell viability at 400 uM after 72 hrs by resazurin reduction assay. The format is functional, cell-based. On the technique in general: Alamar Blue is a resazurin reagent that responds to reducing activity.
The next assay relates to CCRF-CEM. In words: Cytotoxicity against human CCRF-CEM cells assessed as reduction in cell viability after 72 hrs by resazurin reduction assay. Format: functional, cell-based.
Assay [2] in a line: Resistance index, ratio of IC50 for human CEM/ADR5000 cells to IC50 for human CCRF-CEM cells. The format is functional.
Assay [3] deals with ADR5000 cell line. Briefly: Cytotoxicity against human CEM/ADR5000 cells assessed as reduction in cell viability after 72 hrs by resazurin reduction assay. The format is functional, cell-based. The following applies: ADR5000, 72 h.

The source made the active and inactive calls. The calls are words filed in the database; no cut-off is given here.

In the case of `C[C@H]1[C@@H](CCCO)O[C@@H]2O[C@@]3(C)CC[C@H]4[C@H](C)CC[C@@H]1[C@@]24OO3`, the outcome with ADR5000 cell line [1] was inactive.
One may read the IC50 as the concentration that inhibits the measured activity by half. For `COC(=O)CC[C@@H](C)[C@H]1CC[C@H]2[C@@H]3[C@H](OC(C)=O)C[C@@H]4C[C@H](NC(=O)CCC(=O)O[C@@H]5O[C@@H]6O[C@@]7(C)CC[C@H]8[C@H](C)CC[C@@H]([C@H]5C)[C@@]68OO7)CC[C@]4(C)[C@H]3C[C@H](OC(C)=O)[C@]12C`, the IC50 with CCRF-CEM amounted to 36 nM; in the assay with ADR5000 cell line [3], 655 nM. The “Ratio IC50” value in assay [2] came to 18.2.
For the compound `COC(=O)CC[C@@H](C)[C@H]1CC[C@H]2[C@@H]3[C@H](OC(C)=O)C[C@@H]4C[C@H](OC(=O)C[C@H]5O[C@@H]6O[C@@]7(C)CC[C@H]8[C@H](C)CC[C@@H]([C@H]5C)[C@@]68OO7)CC[C@]4(C)[C@H]3C[C@H](OC(C)=O)[C@]12C`, the IC50 with CCRF-CEM was determined as 30 nM; in the assay with ADR5000 cell line [3] it was 1250 nM. In addition, the “Ratio IC50” value in assay [2] turned out to be 41.8.
As for `COC(=O)CC[C@@H](C)[C@H]1CC[C@H]2[C@@H]3[C@H](OC(C)=O)C[C@@H]4C[C@@H](OC(=O)C[C@H]5O[C@@H]6O[C@@]7(C)CC[C@H]8[C@H](C)CC[C@@H]([C@H]5C)[C@@]68OO7)CC[C@]4(C)[C@H]3C[C@H](OC(C)=O)[C@]12C`, the IC50 was determined as 28 nM in the assay on CCRF-CEM and 1290 nM in the assay on ADR5000 cell line [3]. Besides, the “Ratio IC50” value in assay [2] is 46.1.
For `CC(=O)O[C@H]1C[C@H]2[C@@H]([C@H](OC(C)=O)C[C@@H]3CC(=O)CC[C@@]32C)[C@@H]2CC[C@H]([C@H](C)CCC(=O)OCCC[C@H]3O[C@@H]4O[C@@]5(C)CC[C@H]6[C@H](C)CC[C@@H]([C@H]3C)[C@@]46OO5)[C@@]12C`, in that order: 192 nM, 7160 nM and 37.3.
For `COC(=O)CC[C@@H](C)[C@H]1CC[C@H]2[C@@H]3[C@H](OC(C)=O)C[C@@H]4C[C@@H](OC(=O)CCC(=O)O[C@@H]5O[C@@H]6O[C@@]7(C)CC[C@H]8[C@H](C)CC[C@@H]([C@H]5C)[C@@]68OO7)CC[C@]4(C)[C@H]3C[C@H](OC(C)=O)[C@]12C`, in that order: 65 nM, 1180 nM and 18.1.
On to `COc1cccc2c1C(=O)c1c(O)c3c(c(O)c1C2=O)C[C@@](O)(C(=O)CO)C[C@@H]3O[C@H]1C[C@H](N)[C@H](O)[C@H](C)O1` [DOXORUBICIN], for which the “Ratio IC50” value in assay [2] is given as 536.67.
For `COC(=O)CC[C@@H](C)[C@H]1CC[C@H]2[C@@H]3[C@H](OC(C)=O)C[C@@H]4C[C@@H](NC(=O)CCC(=O)O[C@@H]5O[C@@H]6O[C@@]7(C)CC[C@H]8[C@H](C)CC[C@@H]([C@H]5C)[C@@]68OO7)CC[C@]4(C)[C@H]3C[C@H](OC(C)=O)[C@]12C`, the IC50 was 136 nM with CCRF-CEM and 779 nM with ADR5000 cell line [3]. Moreover, the “Ratio IC50” value in assay [2] worked out at 5.7.
The like results for `COC(=O)CC[C@@H](C)[C@H]1CC[C@H]2[C@@H]3[C@H](OC(C)=O)C[C@@H]4C[C@H](NC(=O)C[C@H]5O[C@@H]6O[C@@]7(C)CC[C@H]8[C@H](C)CC[C@@H]([C@H]5C)[C@@]68OO7)CC[C@]4(C)[C@H]3C[C@H](OC(C)=O)[C@]12C` were, in that order, 19 nM, 345 nM and 18.2.
For the compound `COC(=O)CC[C@@H](C)[C@H]1CC[C@H]2[C@@H]3[C@H](OC(C)=O)C[C@@H]4C[C@@H](NC(=O)C[C@H]5O[C@@H]6O[C@@]7(C)CC[C@H]8[C@H](C)CC[C@@H]([C@H]5C)[C@@]68OO7)CC[C@]4(C)[C@H]3C[C@H](OC(C)=O)[C@]12C`, the 50% inhibitory concentration (IC50) in the assay on CCRF-CEM turned out to be 49 nM; with ADR5000 cell line [3], 560 nM. In assay [2], the “Ratio IC50” value was determined as 11.4.
The like results for `COC(=O)CC[C@@H](C)[C@H]1CC[C@H]2[C@@H]3[C@H](OC(C)=O)C[C@@H]4C[C@H](OC(=O)CCC(=O)O[C@@H]5O[C@@H]6O[C@@]7(C)CC[C@H]8[C@H](C)CC[C@@H]([C@H]5C)[C@@]68OO7)CC[C@]4(C)[C@H]3C[C@H](OC(C)=O)[C@]12C` were, in that order, 35 nM, 626 nM and 17.9.
